From article PMC3950631, “L-Phenylalanine Transport in Saccharomyces cerevisiae: Participation of GAP1, BAP2, and AGP1” (Journal of Amino Acids, 2014)
Like-named read-outs stand apart in the source and are kept apart here.

Legend:
Assay in all cases: inhibition of […] L-[…]-phenylalanine uptake into intact yeast cells
Format in all cases: cell-based
Bap2p = target: T1, Bap2p (Saccharomyces cerevisiae, UniProt P38084); conditions: read-out: Percentage inhibition / Y294Δagp1
T1 construct: gene BAP2; native chromosomal permease in intact yeast cells, full length, plasma membrane; assigned by gene disruption
T1 sequence (P38084 1-609): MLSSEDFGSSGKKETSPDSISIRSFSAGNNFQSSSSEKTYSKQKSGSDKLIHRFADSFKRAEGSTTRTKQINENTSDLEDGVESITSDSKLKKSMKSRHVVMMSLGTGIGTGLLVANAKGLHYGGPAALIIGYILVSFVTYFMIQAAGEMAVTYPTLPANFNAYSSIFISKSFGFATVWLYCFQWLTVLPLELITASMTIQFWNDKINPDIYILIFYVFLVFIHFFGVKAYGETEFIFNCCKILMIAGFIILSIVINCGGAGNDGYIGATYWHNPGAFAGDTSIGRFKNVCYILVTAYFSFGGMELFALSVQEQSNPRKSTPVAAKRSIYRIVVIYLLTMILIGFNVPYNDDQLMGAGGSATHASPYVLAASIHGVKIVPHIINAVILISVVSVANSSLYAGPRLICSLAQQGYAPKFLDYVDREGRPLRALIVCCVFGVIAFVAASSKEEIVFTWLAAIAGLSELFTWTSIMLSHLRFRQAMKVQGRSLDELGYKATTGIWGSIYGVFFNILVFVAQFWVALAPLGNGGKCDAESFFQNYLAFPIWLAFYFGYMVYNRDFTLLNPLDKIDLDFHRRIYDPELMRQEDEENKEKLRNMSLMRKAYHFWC

Gap1p = target: T2, Gap1p (Saccharomyces cerevisiae, UniProt P19145)
T2 construct: gene GAP1; native chromosomal permease in intact yeast cells, full length, plasma membrane; assigned by gene disruption and growth medium
T2 sequence (P19145 1-602): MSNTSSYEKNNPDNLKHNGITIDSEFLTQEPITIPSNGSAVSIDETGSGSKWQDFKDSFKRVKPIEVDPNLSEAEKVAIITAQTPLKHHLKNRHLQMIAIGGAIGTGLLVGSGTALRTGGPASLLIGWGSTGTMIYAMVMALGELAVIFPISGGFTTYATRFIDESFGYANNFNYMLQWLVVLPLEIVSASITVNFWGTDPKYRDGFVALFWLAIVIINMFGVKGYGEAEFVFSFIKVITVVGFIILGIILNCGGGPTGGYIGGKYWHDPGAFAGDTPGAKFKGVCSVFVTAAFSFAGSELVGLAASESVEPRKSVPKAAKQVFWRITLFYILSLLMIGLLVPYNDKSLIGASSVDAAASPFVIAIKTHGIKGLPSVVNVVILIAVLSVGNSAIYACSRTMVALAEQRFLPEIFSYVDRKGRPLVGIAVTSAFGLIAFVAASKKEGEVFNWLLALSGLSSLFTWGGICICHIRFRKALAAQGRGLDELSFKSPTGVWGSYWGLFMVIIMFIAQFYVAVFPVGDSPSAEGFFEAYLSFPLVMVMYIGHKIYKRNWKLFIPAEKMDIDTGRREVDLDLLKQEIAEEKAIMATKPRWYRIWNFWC

Agp1p = target: T3, Agp1p (Saccharomyces cerevisiae, UniProt P25376)
T3 construct: gene AGP1; native chromosomal permease in intact yeast cells, full length, plasma membrane; assigned by gene disruption
T3 sequence (P25376 1-633): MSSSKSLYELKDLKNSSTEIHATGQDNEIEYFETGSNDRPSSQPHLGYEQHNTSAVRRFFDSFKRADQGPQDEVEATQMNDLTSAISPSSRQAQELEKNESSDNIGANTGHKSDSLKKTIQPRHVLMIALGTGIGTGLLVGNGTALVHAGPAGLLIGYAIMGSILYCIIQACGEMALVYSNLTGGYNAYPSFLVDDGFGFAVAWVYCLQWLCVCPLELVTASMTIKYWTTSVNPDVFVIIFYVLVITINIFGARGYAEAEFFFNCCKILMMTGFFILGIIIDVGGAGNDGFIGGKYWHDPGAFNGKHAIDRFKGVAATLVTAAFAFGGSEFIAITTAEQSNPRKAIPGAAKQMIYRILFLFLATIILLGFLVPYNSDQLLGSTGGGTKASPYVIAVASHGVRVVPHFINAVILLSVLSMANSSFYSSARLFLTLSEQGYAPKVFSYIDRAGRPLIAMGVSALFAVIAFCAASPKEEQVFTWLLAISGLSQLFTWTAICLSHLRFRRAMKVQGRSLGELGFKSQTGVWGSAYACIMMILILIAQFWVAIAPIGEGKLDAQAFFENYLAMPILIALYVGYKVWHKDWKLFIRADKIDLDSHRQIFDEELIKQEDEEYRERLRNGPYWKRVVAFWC

[1] = read-out: Percentage inhibition / Y294Δbap2
[2] = read-out: Percentage inhibition / Y294Δbap2Δgap1 / MP

| SMILES | inhibition at 200 µM (Bap2p) [%] | inhibition at 200 µM (Gap1p; [1]) [%] | other results |
| --- | --- | --- | --- |
| CC(CC(N)C(=O)O)C(F)(F)F (racemic) [DL-trifluoroleucine] | 48 | 42 |  |
| CC[C@H](C)[C@H](N)C(=O)O [Isoleucine] |  |  | inhibition at 200 µM (Gap1p; read-out: Percentage inhibition / Y294): 71% |
| N[C@@H](Cc1ccc(O)cc1)C(=O)O [Tyrosine] |  | 81 |  |
| CC(C)[C@H](N)C(=O)O [Valine] |  | 71 |  |

Now from value to compound, other results behind:

| inhibition at 200 µM (Bap2p) [%] | inhibition at 200 µM (Gap1p; [1]) [%] | SMILES | other results |
| --- | --- | --- | --- |
| 67 |  | NC(Cc1cccs1)C(=O)O (racemic) [β-2-thienylalanine] |  |
|  | 37 | NC(=O)C[C@H](N)C(=O)O [Asparagine] | inhibition at 200 µM (Agp1p; [2]): 48% |
|  | 40 | NC(=O)NCCC[C@H](N)C(=O)O [Citrulline] |  |
| 72 | 75 | CC(C)C[C@H](N)C(=O)O [Leucine] | inhibition at 200 µM (Agp1p; [2]): 34% |
|  | 86 | N[C@@H](Cc1c[nH]c2ccccc12)C(=O)O [Tryptophan] | inhibition at 200 µM (Agp1p; read-out: Percentage inhibition / Y294Δgap1 / MA): 18% |
